Assay results as given in patent US9421249B2, “Methods to activate or block the HLA-E/Qa-1 restricted CD8+ T cell regulatory pathway to treat immunological disease” (THE TRUSTEES OF COLUMBIA UNIVERSITY IN THE CITY OF NEW YORK, priority 2007, dated 2016).
Where no end group is shown, it is not given here.

Assays:
Qa-1 [1] = test: Qa-1 binding assay (stabilization of Qa-1a surface expression on 3F4 transfectants, FACS); set-up: species or system murine; details: 3F4 cells, peptide 50 μM, 26° C., approximately 18 hours
Protocol: The capacity of the peptides to bind to Qa-1 was first assessed by their ability to stabilize Qa-1 surface expression on 3F4 cells. The 3F4 cells were incubated at 26° C. for approximately 18 hours with Hsp60sp or Qdm peptides and a Qa-1 non-binding peptide HEL 74-96 served as control peptide (12, 14 and 17). As shown by FIG. 6, the binding of exogenous peptide at 26° C. causes a shift in the intensity of Qa-1a surface staining analyzed by FACS.
Selected Qa-1a-PcDNA3.1 positive transfectants detected by RT-PCR were assayed for their Qa-1 surface expression after loading with known Qa-1 binding peptides. In brief, Qa-1a transfectants were incubated at 26° C. for approximately 18 hours with Hsp60sp or Qdm peptides (10, 12 and 17). The surface expression of Qa-1a was assessed by staining with anti-Qa-1a sera followed by Phycoerythorine (PE)-goat anti-mouse Ig, analyzed on a FACScan flow cytometer and CellQuest™ software (Becton Dickinson, Mountain View, Calif.)(1). All peptides were used at 50 μM unless specifically indicated.

Qa-1 [2] = test: Peptide competition assay (functional NK assay); assay type: cell-based, murine; details: Qdm 20 μM; competing peptide 50, 100, 200 μM; 18 hrs at 26° C.; E/T ratio 2:1
Protocol: The ability of the Hsp60sp to compete with Qdm for binding to Qa-1 was further tested in a functional NK assay.
Competing peptides (Hsp60sp or control non-Qa-1 binding peptide) at 50, 100, 200 μM were added to the 3F4 cells, together with 20 μM Qdm for 18 hrs at 26° C. (14). Equal numbers of CFSE labeled LCL cells were mixed with 3F4 cells and NK cells were then added into the mixture of peptide loaded 3F4 cells and LCL cells. The percent NK killing of 3F4 cells was evaluated.

[3] = test system: HLA-E restricted CD8+ T cells; test: CD8+ T cell inhibition CFSE assay on HLA-E transfectants loaded with peptide; assay type: cell-based, human
From the text: Data obtained in human studies support the concept established in the murine studies.
To test if HLA-E restricted CD8+ T cells also play a similar role in the control of human T1D, the function of CD8+ T cells in freshly isolated PBMC from T1D patients was first tested. For this purpose two assays were employed. The first is a standard T cell proliferation assay measuring self non-self discrimination, comparing the overall immune responses of human PBMC to self versus foreign antigens in the presence or absence of CD8+ T cells. Thus, intact PBMC populations or purified CD4+ T cells were cultured with varying doses of the self-antigen GAD or foreign antigen TT. Comparing PBMC with purified CD4+ T cells could not alone definitively pinpoint the function of the CD8+ T cells contained in the PBMC. […] This is the case in testing the function of CD8+ T cells in T1D patients combined with the CD8+ T cell inhibition CFSE assay, which can be applied as a relative simple and feasible clinical test. […] We then proceeded to further identify the specificity of the CD8+ T cells. Thus, purified CD8+ T cells from T1D patients were tested on HLA-E transfectant H3B2 cells loaded with Hsp60sp. H3B2 loaded with B7sp or non-HLA-E binding peptide served as controls.
CD8+ T cells were in vitro primed with DCs loaded with either Hsp60sp [CD8(H)], or B7sp [CD8(B)] and tested for their specificity and the function of self-nonself discrimination using the two assays described above. […] To verify the restored function of the CD8+ T cells, these CD8+ T cell lines were also tested in a CFSE assay on HLA-E transfectant H3B2 cells loaded with Hsp60sp. A CD8(B) line from each patient served as control. […] This phenomenon has been observed in about 60% of the 10 total T1D patients tested to date.

[4] = test system: Qa-1 restricted CD8+ T cells; test: CD8+ T cell inhibition assay, CD8+ T cells from peptide vaccination protected mice; assay type: cell-based
From the text: To test this hypothesis, a Qa-1a expressing cell 3F4 was used as peptide-presenting cell to determine the specificity of the CD8+ T cells isolated from either 1-9Nac MBP or p277 vaccination protected B10PL and NOD mice.
Physiological target T cells, the intermediate avidity 1-9Nac MBP specific clone 1AE10 from B10PL mice and p277 specific clone 15A6 from NOD mice served as positive controls, and low avidity MBP specific clone 4D10 and p277 specific clone 1304 served as negative control to assess the function and the specificity of the CD8+ T cells. It is noted that “quantitative” but not “qualitative” differences between the Qa-1/Hsp60sp versus Qa-1/Qdm is a function of avidity of T cell activation which determines their susceptibility to the down-regulation by the CD8+ T.
3F4 cells were passively loaded with peptides overnight at 26° C. Equal number of unlabeled 3F4 cells loaded with peptides and CFSE labeled 3F4 cells that are not loaded with peptide were mixed and a graded number of CD8+ T cells were added to the targets. […] 4 days later, the cell mixtures were stained with anti-mouse CD8-PE mAb to distinguish CD8+ T cells from target cells and the CD8+ T cells were gated out during the analysis when the ratio between two types of targets were calculated. […]

CD94/NKG2A [5] = target: CD94/NKG2A (Homo sapiens, UniProt P26715+Q13241); details: cited from earlier work
Sequence of CD94/NKG2A (Homo sapiens, UniProt P26715+Q13241) (Q13241 whole entry): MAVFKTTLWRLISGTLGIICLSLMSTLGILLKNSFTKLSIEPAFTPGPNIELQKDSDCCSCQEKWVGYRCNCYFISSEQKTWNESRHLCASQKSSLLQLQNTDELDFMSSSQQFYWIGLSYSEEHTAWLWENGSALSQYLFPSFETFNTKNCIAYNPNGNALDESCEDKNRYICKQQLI
Sequence of CD94/NKG2A (Homo sapiens, UniProt P26715+Q13241) (P26715 whole entry): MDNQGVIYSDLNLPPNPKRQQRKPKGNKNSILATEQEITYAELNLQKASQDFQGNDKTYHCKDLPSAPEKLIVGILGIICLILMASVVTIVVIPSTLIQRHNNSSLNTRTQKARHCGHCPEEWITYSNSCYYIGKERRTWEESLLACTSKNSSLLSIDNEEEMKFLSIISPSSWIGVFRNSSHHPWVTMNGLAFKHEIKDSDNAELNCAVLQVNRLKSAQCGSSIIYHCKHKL

CD94/NKG2A [6] = test: NK assay with peptide-loaded 3F4 cells; assay type: cell-based; details: 3F4 cells loaded with peptide at 26° C. overnight; mouse NK cells 2 hrs
From the text: Since a significant number of murine CD8+ T cells express CD94/NKG2A, it was investigated whether Qa-1/Hsp60sp generated in activated murine T cells is capable of interacting with CD94/NKG2A in a functional NK assay. […] This is also compatible with the notion that two types of Qa-1/HLA-E binding peptides could be distinguished by their ability of interact with CD94/NKG2A in both humans (14) and mice.
NK cell lines are routinely established from B10PL mice (24). Unlabeled 3F4 cells were loaded with test peptides at 26° C. overnight and mixed with an equal number of CFSE labeled human EBV transformed LCL cells which are not susceptible to the killing by mouse NK cells. Graded numbers of mouse NK cells were added to the mixture of 3F4 and LCL cells and further incubated at 37° C. for 2 hrs. 3F4 cells, which were not loaded with peptides or loaded with non-Qa-1 binding peptides served as controls. The cell mixtures were then stained with anti mouse H-2^U mAb 3-8-3P-PE to distinguish NK cells from target cells. The change in the ratio of 3F4 to LCL cells in the presence or absence of NK cells in each group detected by FACS (1) reflects the specific NK killing: % specific killing={[the killing ratio in control wells (without NK)−the killing ratio in experimental wells (with NK)]/the killing ratio of control wells}×100%.

Qa-1/HLA-E = details: cited from earlier work
[7] = test system: Qa-1 dependent CD8+ T cells; test: CD8+ T cell inhibition assay, CD8+ T cells from EAE recovered mice; assay type: cell-based; details: CD8+ T cells isolated from EAE recovered B10PL mice
From the text: It was next tested if Qa-1/Hsp60sp is the target for the regulatory CD8+ T cells. […] The Qa-1 expressing 3F4 cell was used as the Qa-1 peptide presenting cell to test if Hsp60sp is preferentially recognized by the regulatory CD8+ T cells in a CD8+ T cell inhibition assay. The 1-9NacMBP (myelin basic protein) specific, intermediate avidity clone 1AE10, capable of inducing EAE in vivo (8, 19) served as a positive control, and a non-encephalitogenic, low avidity clone 4D10 as well as 3F4 loaded with control non-Qa-1 binding peptide or Qdm served as negative controls. […] Thus, Hsp60sp is, indeed, a specific target recognized by the CD8+ T cells, when presented by Qa-1.
3F4 cells were passively loaded with peptides overnight at 26° C. Equal number of unlabeled 3F4 cells loaded with peptides and CFSE labeled 3F4 cells that are not loaded with peptide were mixed and a graded number of CD8+ T cells were added to the targets. […] The ratio between peptide-loaded (non-CFSE-labeled) 3F4 cells and non-loaded (CFSE labeled) 3F4 cells in the presence of CD8+ T cells was determined as % of specific inhibition: {[the ratio of loaded to unloaded 3F4 cells in control cultures (without CD8+ T cells)−the ratio in experimental cultures (with CD8+ T cells)]/the ratio in control cultures}×100% (1).

EAE in B10PL mice = test: Peptide vaccination in EAE model; assay type: in vivo; details: B10PL mice immunized subcutaneously with antigen emulsified with IFA; compared with IFA alone
From the text: B10PL mice were vaccinated with either 1-9NacMBP, a MHC Class II biding peptide derived from MBP or p277, a MHC Class II biding peptide derived from Hsp60. In this regard, it is well known that 1-9NacMBP is a pathogenic peptide in B10PL mice and p277 may be involved in the pathogenesis of T1D in certain mouse strains (174) but irrelevant to EAE.

T1D in NOD mice = test: Peptide vaccination in spontaneous T1D model; details: NOD mice immunized subcutaneously with antigen emulsified with IFA; compared with IFA alone
Protocol: In the standard protocol used throughout this study female 8-10 weeks old B10PL or 3-4 weeks old NOD mice were immunized subcutaneously with 1-9Nac MBP or p277 emulsified with IFA at 100 uM/mouse as described. EAE was induced at least one week after peptide vaccination. CD8+ T cells were purified from spleens and draining lymph nodes of peptide vaccination protected EAE/B10PL mice or T1D/NOD mice by positive selection with CD8 MACS magnetic beads (Miltenyibiotec, Inc. Auburn Calif.). The purity of CD8+ T cells is routinely >95%.
The effect of peptide vaccination or adoptive transfer of CD8+ T cells was evaluated by assessing the clinical EAE (181) or T1D in the recipient mice.

QMRPVSRAL (listed as Mus musculus) [Hsp60sp]
Binding to Qa-1 (shift in intensity of Qa-1a surface staining) (Qa-1 [1]): could bind to Qa-1 | Competition with Qdm for binding to Qa-1 (abrogation of Qdm protection from NK killing) (Qa-1 [2]): abrogated the protection of NK killing of 3F4 by Qdm in a dose dependent manner | Inhibition of H3B2 cells loaded with peptide by CD8(H) ([3]; CD8(H) line from a T1D patient, after in vitro priming with DCs loaded with Hsp60sp): specifically inhibited | Inhibition of H3B2 cells loaded with peptide by CD8+ T cells ([3]; CD8+ T cells from freshly isolated PBMC of T1D patients (11 total patients tested)): failed to specifically inhibit | Inhibition of H3B2 cells loaded with peptide by CD8+ T cells ([3]; CD8+ T cells from normal controls): specifically inhibited | Inhibition of HLA-E transfected clones loaded with peptide by CD8(H) ([3]; CD8+ T cells primed in vitro with Hsp60sp loaded dendritic cells): specifically inhibit | Down-regulation of peptide-sensitized 3F4 cells by CD8+ T cells ([4]; CD8+ T cells from 1-9Nac MBP or p277 vaccination protected B10PL mice): efficiently down-regulated | Down-regulation of peptide-sensitized 3F4 cells by CD8+ T cells ([4]; CD8+ T cells from p277 or 1-9Nac MBP vaccination protected NOD mice): efficiently down-regulated | Interaction of HLA-E/peptide complex with CD94/NKG2A (CD94/NKG2A [5]): does not interact with CD94/NKG2A | Inhibition of NK killing of peptide-loaded 3F4 cells (CD94/NKG2A [6]): does not inhibit NK killing | Competition with B7sp for occupancy of HLA-E (Qa-1/HLA-E; human studies): capable of competing with B7sp peptide | Susceptibility of peptide-loaded 3F4 cells to down-regulation by CD8+ T cells [7]: susceptible to the down-regulation by the CD8+ T cells

AMAPRTLLL [Qdm]
Binding to Qa-1 (shift in intensity of Qa-1a surface staining) (Qa-1 [1]): could bind to Qa-1 | Inhibition of NK killing of peptide-loaded 3F4 cells (CD94/NKG2A [6]): resistant to the NK killing | Binding to Qa-1 (Qa-1/HLA-E): binds with high affinity

AcASGLAPSGA (Ac-ASGLAPSGA; listed as Mus musculus) [1-9Nac MBP]
Protection from subsequently induced EAE (EAE in B10PL mice): equally effectively protected from EAE | Protection from spontaneously developed T1D (T1D in NOD mice): equally protected NOD mice from spontaneously developed T1D

VLGGGVALLRVIPALDSLTPANED [p277]
Protection from subsequently induced EAE (EAE in B10PL mice): equally effectively protected from EAE | Protection from spontaneously developed T1D (T1D in NOD mice): completely protected NOD mice from spontaneously developed T1D up to 35 week's of age

HEL: conventional foreign antigen Hen Egg Lysozyme
Protection from subsequently induced EAE (EAE in B10PL mice): CD8+ T cell dependent protection from either EAE or T1D | Protection from spontaneously developed T1D (T1D in NOD mice): CD8+ T cell dependent protection from either EAE or T1D
